# Measurements published in publication PMC11597048, “M2e-Derived Peptidyl and Peptide Amphiphile Micelles as Novel Influenza Vaccines” (Pharmaceuticals, 2024).
# Tests used:
# [1] = Transmission electron microscopy of micelles; type: physicochemical; details: 20 μM peptide or PA with or without 2.22 μM Pam2CSK4 (90/10) in PBS, Nano-W negative stain
# Description: Solutions of 20 μM peptide or PA with or without 2.22 μM Pam2CSK4 were prepared in PBS from which 5 μL was pipetted onto a carbon-coated copper transmission electron microscopy (TEM) grid and incubated for 3–5 min before excess solution was wicked away using filter paper. Then, 5 μL Nano-W (2% methylamine tungstate) was pipetted on the grid and incubated for 3–5 min before being removed by wicking. Grids were imaged using a JEOL JEM-1400 Transmission Electron Microscope (Tokyo, Japan) at 15,000× and 25,000× magnification. Micrographs of peptide or PA were compared against reference micrographs of Nano-W with or without PBS to ensure proper identification of micellar structures.
# [2] = test system: bone marrow-derived dendritic cells (BMDCs); assay: BMDC cytokine secretion (sandwich ELISA of supernatant); type: cell-based, BALB/c mice; details: 24 h treatment, 0.2 μM Pam2CSK4, supernatant ELISA
# Description: Bone marrow was harvested from the femurs and tibias of 4-month-old BALB/c mice and red blood cells were lysed using ammonium-chloride-potassium (ACK) lysing buffer. Bone marrow cells were cultured in complete RPMI media (i.e., 10% FBS, 100 U/mL penicillin, 100 μg/mL streptomycin, and 50 μM β-mercaptoethanol) with 20 ng/mL granulocyte-macrophage colony-stimulating factor (GM-CSF) to promote differentiation into bone marrow-derived dendritic cells (BMDCs). After 10 days, BMDCs were plated in untreated 24-well plates and cultured with peptide or PA for 24 h. Supernatants were collected and stored at −20 °C for later use. BMDCs were harvested and processed for flow cytometry analysis. More specifically, cells were removed from the plate, blocked with Trustain FcX anti-mouse CD16/32 antibody (BioLegend), then stained with phycoerythrin-Cyaninine7 (PE-Cy7) anti-mouse CD11c (BioLegend), fluorescein isothiocyanate (FITC) anti-mouse CD40 (BioLegend), and allophycocyanin (APC) anti-mouse MHC II (BioLegend) before being fixed with 4% para-formaldehyde. Cells were analyzed on a BD LSR Fortessa Flow Cytometer (Franklin Lakes, NJ, USA) within 48 h after fixation. Events were gated according to the strategy shown in Figure S2, with viable samples having a “valid cells” gate of at least 45% of the total events. […]
substance,measurement,setting,value
Pam2CSK4,Micelle morphology (TEM),[1],mostly small spherical micelles
same,IL-12/IL-23 (p40) secretion,[2],higher production
same,TNF-α secretion,[2],higher production
